Values belong to the compound of their own block, whether it stands above or below them.
Columns and labels:
rd10 mice [1] = experiment: In vivo efficacy in rd10 mouse model of retinitis pigmentosa, electroretinographic (ERG) analysis; conditions: for retinal function measured by ERG activity: 3 μL of 20 mM solution per eye daily for 11 days, scotopic conditions, vs untreated rd10
Protocol: rd10 mice were treated by ocular instillation with phosphate buffered saline (PBS) containing the compounds of the invention (1, 35, 50, 56 and 70) for 11 days (from P14 to P24). Animals were dark adapted for 8 hours at P25 and full-field flash electroretinographic (ERG) responses were recorded with the retina illuminated with a LED-driven Ganzfeld dome. A series of light flashes of increasing intensity, from 0.001 to 10 cd s/m^2, were averaged both in scotopic (dark-adapted) and photopic (light adapted) conditions. Photopic cone responses were recorded following 5 min of light adaptation with a background white light (30 cd/m^2). Light intensity was controlled for each animal group (Mavo-Monitor USB, Gossen, Germany). The stimulation protocols were designed according to the International Society for Clinical Electrophysiology of Vision. Briefly, mice were anesthetized with intraperitoneal administration of a saline solution containing ketamine (95 mg/kg) and xylazine (5 mg/kg) and kept on a 37° C. heating pad. Ocular instillation of 1% tropicamide was applied to induce mydriasis. ERG responses were recorded from both eyes in response to a Ganzfeld stimulator under light flashes. A total of 4 to 64 consecutive stimuli were averaged, with an interval between light flashes in scotopic conditions of 10 s for dim flashes and of up to 60 s for the highest intensity for every light intensity used. For photopic conditions, a one-second interval between light flashes was used. ERG signals were amplified, and band filtered between 0.3 and 1000 Hz (CP511 AC amplifier; Grass Instruments, Quincy, MA, USA). Electrical signals were digitized at 20 kHz with a power laboratory data acquisition board (AD Instruments, Chalgrove, UK).
ERGs were performed using an electrode fixed to a corneal lens (Burian-Allen electrode; Hansen Ophthalmic Development Laboratory, Coralville, IA, USA) and a reference electrode fixed to the mouth, with a ground electrode placed in the tail. Rod-mediated responses were recorded from light flashes ranging from 0.001 to 10 cd s/m^2 with dark-adapted mice. Mixed rod- and cone-mediated signals were recorded in response to −1.5 to 1.5 log cd s/m^2 light flashes. Oscillatory potential (OP) was isolated using 11 cd s/m^2 white flashes, with a recording frequency ranging between 100 and 10,000 Hz. For recording of cone-mediated responses, we applied light flashes ranging from 0.5 to 2 log cd s/m^2 on a rod-saturating background of 30 cd s/m^2. Amplitudes of the a-wave and b-wave were averaged, using data provided by a researcher with no information regarding the experimental condition of mice.
Data correspond to a pool of 3 independent experiments (N=3) with 4-5 mice per experimental group. Data are expressed as mean+/−standard deviation. Unpaired t-test was used for statistical analysis.

rd10 mice [2] = experiment: Morphometric analysis of the retina (immunohistochemistry, rhodopsin and cone arrestin); format: in vivo, mouse; conditions: 3 μL of 20 mM solution per eye for 11 days; vs untreated rd10
Protocol: A detailed morphometric analysis, based on immunohistochemistry, was performed. For this purpose, rd10 mice were treated by ocular instillation with phosphate buffered saline (PBS) containing compound 35 (3 μL of 20 mM solution per eye) for 11 days (from P14 to P24). At P25 eyeballs were enucleated and fixed with 4% paraformaldehyde (in PBS) for 3 hours. The anterior segment and lens were dissected, and the eyecups were incubated in 30% sucrose (in PBS) for 12 h at 4° C. Cryosection with DAPI. ocular cryosections were stained with DAPI, rhodopsin and cone arrestin for immunohistochemical analysis. Briefly, cryosections were incubated with antibodies against rhodopsin (Millipore, MABN15) and cone arrestin (Millipore, AB15282) both at 1:400 for 8 h at 4° C. and buffered with secondary antibodies both at 1:400 and DAPI (Sigma, D89542) 1:1000 for 1 hour. The sections were analyzed by fluorescent microscopy.

rd10 mice [3] = experiment: Optokinetic response based on a modified Morris water maze; format: in vivo, mouse; conditions: daily ocular instillation for 16 days; spatial frequencies 0.01; 0.02; 0.17 and 0.35 cycles/degree
Protocol: rd10 mice were treated by ocular instillation with phosphate buffered saline (PBS) containing the compound 35 of the invention for 16 days (from P14 to P29). To study optokinetic (OKT) response, we conducted an OKT test in combination with a modified Morris water maze using 9 rd10 mice at p30: 5 treated with compound 35 and 4 untreated. Animals were adapted to the experimental conditions for 1 week before behavioral testing. Mice were trained in a square pool (70×40 cm) filled with water (24-26-C), with all sides opaque, except the frontal side, where a screen was placed. The screen was divided vertically into 2 equal parts. A pattern of moving vertical bars was presented on one half of the screen, with the other half turned off. The direction of the bars was random: 50% of the time moving to the right and 50% of the time moving to the left. The bar velocity was constant throughout the process. Mice were trained for one week to associate the area of the screen with moving bars with the presence of a submerged platform, not visible to the mice under the dim light conditions, that was placed right next to that area of the screen. The platform allowed the mice to escape from the water. […] Contrast sensitivity values were measured, and the results of treated and untreated mice were compared.

[4] = Retinal biodistribution after topical ocular administration, HPLC-MS of retina (mouse); format: in vivo; conditions: formulated with 0.2% hyaluronic acid vs PBS solution; 4 h after single ocular instillation
Protocol: Ocular instillation with PBS solutions containing 0.2% hyaluronic acid (HA) and the selected compounds of the invention were administered: 17 μg/eye (3 μL of 20 mM solution per eye) in mouse; 65 μg/eye (10 μL of 17 mM solution per eye) in rat; and 559 μg/eye (50 μL of 40 mM solution per eye) in swine. Animals were sacrificed after 4 hours (mouse, rabbit and swine) or after 24 hours (rats) of treatment to determinate the availability of the compounds in the retina. Retinas were mechanically homogenized in physiological serum ([…]) and processed to analyze the compounds availability by HPLC-MS.

661W cells = experiment: Prevention of 9-cis-Retinal and light-induced phototoxicity, impedance recording; format: cell-based; conditions: Mus musculus, light or radiation study, 20 μM 9-cis-Retinal, 30,000 luxes white light, impedance converted to percentage of cytolysis, read-out: EC50 of protection against phototoxicity
Protocol: 661W cells were seeded onto 96-wells MEA impedance plates (50,000 cells/well) and grown until confluence in the Maestro Edge equipment (Axion Biosystems) at 37° C. and 5% CO2. When impedance reaches a plateau, phototoxicity is induced by addition of 20 μm 9-cis retinal and 30,000 luxes of white light. Increasing concentrations of compound 35 were added (A). Impedance was recorded every minute for 24 hours and was converted to percentage of cytolysis (B). 661 W cells were seeded in a 96-wells impedance plate (50,000 cells/well), previously coated with ECM 1:100, and grown O/N at 37° C. and 5% CO2 in DMEM/F-12 (Thermo Fisher, 11320033) supplemented with 40 μL/L hydrocortisone 21-hemisuccinate (Sigma, H-2270), 40 μL/L progesterone (Sigma, P-8783), 0.032 g/L putrescine (Sigma, P-7505), 40 μL/L β-mercaptoethanol (Sigma, M-6250), antibiotic-antimycotic solution (Sigma, A5955) and 10% fetal bovine serum (FBS). After 8 h, the medium was replaced by DMEM/F-12 without FBS or complements to remove cellular debris. When cells arrived at a plateau in the impedance recording (4-8 hours after the medium change, depending on the culture plate) compound 35 was added and two hours later the 9-cis-Retinal (Cf=20 μM) was added. The cells were placed in the Maestro Z and exposed to 30,000 white light luxes. to register the impedance.

[5] = Retinal biodistribution by in vivo autoradiography after ocular instillation; parameters: species or system Sprague-Dawley rats; conditions: 5 μL/eye of 20 mM PBS solution, autoradiography at 1, 8 and 24 h
Protocol: In order to test the bioavailability of the compounds 1, 24, 35, 53, 66 and 67 to the retina, the following species we used: mouse, rat, rabbit and swine. Animals were treated under anesthesia. In vivo autoradiography imaging was conducted at 1, 8 and 24 hours following the ocular instillation of compound [^3H]-35 (5 μL/eye) as a phosphate buffered saline (PBS) 20 mM solution under carrier added conditions (ca. 7 mBq/eye) on Sprague-Dawley rats (n=4 for each time point). After the enucleation, the eye was incubated firstly in an aqueous solution at 4% of paraformaldehyde for 4 hours, then in aqueous solution at 10% and 20% of sucrose for 2 hours each and finally in aqueous solution at 30% of sucrose for one week. All the incubations were at 4° C. The samples were fixed in OCT (optimal cutting temperature polymer) and fine 20-μm sections of eye were cut using a Leyca cryostat (Leica CM3050 S, Germany) at −24° C. The slices (20 μm thick) were disposed on glass slides (Superfrost Plus, Labolan). Autoradiography was performed in Beta Imager 2000 system (Biospace Lab, France), for 1 h on four consecutive slices of the central part of the organ where all the parts are visible (FIG. 1 A).

retinal function measured by ERG activity (rd10 mice [1]): increased retinal function
Structure (SMILES): COc1ccc(OCc2cn(CCN(C)C)nn2)cc1 [Compound 1, 1-[2-(N,N-dimethylamino)ethyl]-4-[(4-methoxyphenoxy)methyl]-1H-1,2,3-triazole]

delivery percentage to the mouse retina (percentage of administered dose per gram of retina) [4]: higher delivery percentage
cone function: recovery score vs. WT (rd10 mice [1]; 0.2 cd s/m^2 light intensity): 78%
cone function: increase of ERG amplitude (rd10 mice [1]; 0.2 cd s/m^2 light intensity, vs rd10 control group): 66%
retinal function measured by ERG activity (rd10 mice [1]): increased retinal function
Structure (SMILES): COc1ccc(SCc2cn(CCN(C)C)nn2)cc1 [Compound 35, 1-[2-(N,N-dimethylamino)ethyl]-4-[(4-methoxyphenyl)thiomethyl]-1H-1,2,3-triazole]
preservation of photoreceptors (number of rods and cones per square mm, rod outer and inner segment) (rd10 mice [2]): significant preservation of photoreceptors
contrast sensitivity (visual acuity), treated vs untreated (rd10 mice [3]): greatest differences were observed in the outlier values of spatial frequency
EC50 (661W cells): 30.5 nM

time after administration up to which compound was detected in rat retina [5]: up to 24 h
time of peak concentration in rat retina [5]: around 8 h
Structure (SMILES): [3H]c1c(CSc2ccc(OC)cc2)nnn1CCN(C)C [Compound 52, 1-[2-(N,N-dimethylamino)ethyl]-5-trithium-4-[(4-methoxyphenyl)thiomethyl]-1H-1,2,3-triazole]

retinal function measured by ERG activity (rd10 mice [1]): increased retinal function
Structure (SMILES): [O-][S+](Cc1cn(CCN2CCCCC2)nn1)c1cccc(C(F)(F)F)c1 (stereo not shown) [Compound 56, 1-[2-(piperidin-1-yl)ethyl]-4-[(3-trifluoromethylphenyl)sulfinylmethyl]-1H-1,2,3-triazole]

retinal function measured by ERG activity (rd10 mice [1]): increased retinal function
Structure (SMILES): COc1ccc(SCc2cn(CCCNC(=N)NC(=N)N)nn2)cc1 [Compound 50, 1-[3-(biguanidinyl)propyl]-4-[(4-methoxyphenyl)thiomethyl]-1H-1,2,3-triazole]

retinal function measured by ERG activity (rd10 mice [1]): increased retinal function
Structure (SMILES): CC(C)c1ccc(S(=O)(=O)Cc2cn(CCN3CCOCC3)nn2)cc1 [Compound 70, 4-[(4-isopropylphenyl)sulfonylmethyl]-1-[2-(4-morpholinyl)ethyl]-1H,1,2,3-triazole]
